Data from paper PMC3172300, “Modulation of Catalytic Activity in Multi-Domain Protein Tyrosine Phosphatases” (PLoS ONE, 2011).
Several values for one entry are separate records, joined by “and”; a condition that tells them apart may be missing. Equal entries are not always repeated. Where two headings read alike, the source gives them in different places. Square brackets hold non-standard residues; d marks the D form. Peptide text beside a SMILES is read from it. pY = N[C@@H](Cc1ccc(OP(=O)(O)O)cc1)C(=O)O

Assays:
DLAR D1HSS D2 = target: T1, DLAR D1HSS D2 (Drosophila melanogaster, UniProt P16621, C1670S); experiment: Surface Plasmon Resonance peptide binding, DLAR D1HSS D2; details: two-site model, read-out: ka
T1 construct: DLAR 1448-2029; His tag (pET-15b or pET-22b); made in house; host or cells: E. coli BL21(DE3)
T1 sequence (P16621 1448-2029 C1670S): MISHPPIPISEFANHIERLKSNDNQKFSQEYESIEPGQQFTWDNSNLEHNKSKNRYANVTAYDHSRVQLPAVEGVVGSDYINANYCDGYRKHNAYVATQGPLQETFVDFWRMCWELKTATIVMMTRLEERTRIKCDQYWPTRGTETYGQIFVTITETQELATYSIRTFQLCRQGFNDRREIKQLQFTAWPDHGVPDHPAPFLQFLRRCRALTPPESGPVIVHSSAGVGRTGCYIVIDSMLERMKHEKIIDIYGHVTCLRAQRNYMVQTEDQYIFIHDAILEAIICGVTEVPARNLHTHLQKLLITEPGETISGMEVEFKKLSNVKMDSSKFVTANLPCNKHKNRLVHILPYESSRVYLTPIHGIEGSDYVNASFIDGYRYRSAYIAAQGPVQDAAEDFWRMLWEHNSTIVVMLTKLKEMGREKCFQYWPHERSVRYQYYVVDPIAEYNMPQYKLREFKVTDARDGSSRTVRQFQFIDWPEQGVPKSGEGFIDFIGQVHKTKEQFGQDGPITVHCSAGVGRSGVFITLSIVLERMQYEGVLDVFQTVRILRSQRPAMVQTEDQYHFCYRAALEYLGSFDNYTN
Protocol: The binding of phosphotyrosine peptides to the PTP domains was studied by Surface Plasmon Resonance on a Biacore-2000 instrument (BIAcore, AB). All experiments were conducted at 25°C. DLAR PTP domains were immobilized onto carboxylated dextran CM5 chips (BIAcore AB) using the standard amine coupling procedure as recommended by the manufacturer. Binding and kinetic assays were performed in 10 mM HEPES, pH 8.0, 150 mM NaCl, 10 mM DTT and 3 mM EDTA at a flow rate of 5 µL/min. The peptides were used at concentrations ranging from 50–700 µM. Dissociation was initiated by replacing the analyte with buffer. The association and dissociation curves were monitored for 600 sec. Sensograms were analyzed with BIA-evaluation software version 2 (BIAcore AB). Sensograms for DLAR D1D2, DLAR D1HSSD2 and DLAR D1D2HSS were fitted to two-site binding equations. DLAR D1 and DLAR D2 sensograms were fitted using a single-site binding model.

DLAR D1 = target: T2, DLAR D1 (Drosophila melanogaster, UniProt P16621); experiment: Phosphatase assay using pNPP, DLAR D1; assay type: biochemical; details: CGH buffer pH 6.5, 100 mM NaCl, 2 mM DTT
T2 construct: DLAR 1448-1746; His tag (pET-15b or pET-22b); made in house; host or cells: E. coli BL21(DE3)
T2 sequence (P16621 1448-1746): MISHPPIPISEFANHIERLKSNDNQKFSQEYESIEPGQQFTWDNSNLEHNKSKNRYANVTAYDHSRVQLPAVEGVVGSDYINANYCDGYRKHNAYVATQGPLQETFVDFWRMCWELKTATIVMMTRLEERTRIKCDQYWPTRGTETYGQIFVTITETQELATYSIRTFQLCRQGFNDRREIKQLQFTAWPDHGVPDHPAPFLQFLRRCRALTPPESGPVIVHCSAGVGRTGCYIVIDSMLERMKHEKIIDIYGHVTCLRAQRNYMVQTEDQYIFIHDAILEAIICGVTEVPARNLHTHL
Protocol: Phosphatase activity of the recombinant PTP domains was determined by using para-Nitrophenylphosphate (pNPP), a small molecule generic substrate, as well as phosphotyrosine containing peptides. The pNPP assay was performed as reported previously, with a modification in the buffer composition (25 mM Citrate, Glycine and HEPES (CGH), pH 6.5, 100 mM NaCl and 2 mM DTT). Phosphatase activity with the phosphotyrosine peptides was ascertained by the malachite green reaction as described for PTPs previously. Briefly, the reaction mixture comprised of 0.01 µM protein incubated with increasing concentrations of different peptides in 25 mM citrate buffer pH 6.0, 100 mM NaCl and 2 mM DTT for 15 min at 25°C. The reaction was stopped by the addition of the Biomol Green reagent (Enzo Life Sciences) and the colour developed after 20 min was quantified at 650 nm. For all the assays, kinetic constants for the steady state catalysis were obtained by fitting the reaction curves to the Michaelis-Menten equation using the nonlinear regression module of Sigma plot software (Systat Software, Inc.).
The tandem PTP domains of PTP99A (PTP99A D1D2) and DLAR (DLAR D1D2) , the individual PTP domains (D1 and D2) as well as the active site mutants were expressed in E. coli and were purified using the protocols described earlier (Figure 1a, Figure S1a, b & c). The biochemical characterization and catalytic activity measurements were performed using pNPP as a substrate. […] Thus the D2 domain appears to have a regulatory role in both RPTPs- decreasing the catalytic activity in the case of DLAR while increasing the catalytic activity in the case of PTP99A (Figure 1b).

Compound	kon (DLAR D1HSS D2; pH 8, SPR Biacore-2000, 25°C, 10 mM HEPES pH 8.0, 150 mM NaCl, 10 mM DTT, 3 mM EDTA, peptides 50–700 µM, first binding site)	kon (DLAR D1HSS D2; pH 8, SPR, 25°C, pH 8.0, second binding site)	Kcat (DLAR D1)	Kcat/Km (DLAR D1)	Vmax (DLAR D1; Michaelis-Menten fit)
CC(C)C[C@H](NC(=O)[C@H](C)NC(=O)CNC(=O)[C@H](Cc1ccc(OP(=O)(O)O)cc1)NC(=O)[C@H](CC(=O)O)NC(=O)[C@@H]1CCCN1C(=O)[C@H](CCC(=O)O)NC(=O)[C@H](C)NC(=O)[C@@H](N)[C@@H](C)O)C(=O)N[C@@H](Cc1ccc(O)cc1)C(=O)N[C@@H](CCC(=O)O)C(=O)O [Cuticle peptide] (H-TAEPD[pY]GALYE-OH)	74.7 ± 2.41 M⁻¹ s⁻¹	28800 ± 8e+06 M⁻¹ s⁻¹	–	–	–
O=[N+]([O-])c1ccc(OP(=O)(O)O)cc1 [pNPP, para-Nitrophenylphosphate]	–	–	16.10 ± 0.27 s⁻¹	16.03 ± 0.11 x 10^3 sec^-1M^-1	20.56 µmol/min/mg and 20.56 ± 0.34 µmol/min/mg
